Laboratory results from paper PMC9977279, “Cryo-EM structures of mitochondrial respiratory complex I from Drosophila melanogaster” (eLife, 2023).

Experiments:
Assay in all cases: cryo-EM structure ([…] A)
[1] = target: T1, Drosophila complex I (NADH-binding site at the FMN cofactor) (Drosophila melanogaster, UniProt Q9VMI3); settings: co-purified; Dm1 active state
T1 construct: gene ND-51; native 43-subunit complex I, ~1 MDa monomer, purified from mitochondrial membranes of whole adult flies in DDM; no tag; with NADH dehydrogenase [ubiquinone] iron-sulfur protein 2; NADH dehydrogenase [ubiquinone] iron-sulfur protein 7; NADH-ubiquinone oxidoreductase chain 1
T1 sequence (Q9VMI3 34-474, one chain of several): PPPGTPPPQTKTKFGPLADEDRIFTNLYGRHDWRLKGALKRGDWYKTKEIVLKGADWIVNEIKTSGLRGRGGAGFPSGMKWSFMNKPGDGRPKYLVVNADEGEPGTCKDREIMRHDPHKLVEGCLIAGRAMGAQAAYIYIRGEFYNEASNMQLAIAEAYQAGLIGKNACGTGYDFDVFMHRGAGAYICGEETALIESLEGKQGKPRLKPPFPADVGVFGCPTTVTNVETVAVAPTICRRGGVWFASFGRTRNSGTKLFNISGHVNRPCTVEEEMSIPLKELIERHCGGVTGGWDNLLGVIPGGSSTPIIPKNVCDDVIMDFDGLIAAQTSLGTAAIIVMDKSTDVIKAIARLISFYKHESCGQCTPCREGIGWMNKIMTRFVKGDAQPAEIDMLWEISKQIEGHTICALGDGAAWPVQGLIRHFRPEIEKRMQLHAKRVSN

[2] = system: T2, Drosophila complex I (ubiquinone-binding site; subunits NDUFS2, NDUFS7, ND1, ND3, ND6); parameters: species or system Drosophila melanogaster; settings: co-purified; Dm1 active state; partially inserted in ubiquinone channel; ubiquinone-9 or -10 referred to as Q9
T2 construct: gene ND-49; native 43-subunit complex I (14 core, 29 supernumerary), ~1 MDa monomer, purified from mitochondrial membranes of whole adult flies in DDM; no tag; NDUFA2 and NDUFC1 absent; with NADH dehydrogenase [ubiquinone] flavoprotein 1
T2 sequence (Q9V4E0 39-468): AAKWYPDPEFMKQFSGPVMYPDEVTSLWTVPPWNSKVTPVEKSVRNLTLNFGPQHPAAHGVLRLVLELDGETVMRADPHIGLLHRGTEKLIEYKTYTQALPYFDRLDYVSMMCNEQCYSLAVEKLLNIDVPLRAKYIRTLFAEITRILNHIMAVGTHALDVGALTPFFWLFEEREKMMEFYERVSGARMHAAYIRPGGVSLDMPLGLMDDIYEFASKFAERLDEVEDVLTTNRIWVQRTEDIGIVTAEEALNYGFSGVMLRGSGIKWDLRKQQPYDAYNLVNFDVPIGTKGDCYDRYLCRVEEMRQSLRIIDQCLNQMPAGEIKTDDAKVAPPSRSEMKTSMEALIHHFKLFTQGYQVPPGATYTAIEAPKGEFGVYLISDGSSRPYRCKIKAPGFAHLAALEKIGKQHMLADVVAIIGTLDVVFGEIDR
T2 sequence (Q9VXK7 40-221, further chain): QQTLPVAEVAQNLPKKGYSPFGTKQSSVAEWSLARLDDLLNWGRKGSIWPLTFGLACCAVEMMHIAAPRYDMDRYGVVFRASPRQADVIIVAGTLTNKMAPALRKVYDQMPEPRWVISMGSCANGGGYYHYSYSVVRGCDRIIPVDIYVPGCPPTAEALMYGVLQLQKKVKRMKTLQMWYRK
T2 sequence (C7DZL9 1-315, further chain): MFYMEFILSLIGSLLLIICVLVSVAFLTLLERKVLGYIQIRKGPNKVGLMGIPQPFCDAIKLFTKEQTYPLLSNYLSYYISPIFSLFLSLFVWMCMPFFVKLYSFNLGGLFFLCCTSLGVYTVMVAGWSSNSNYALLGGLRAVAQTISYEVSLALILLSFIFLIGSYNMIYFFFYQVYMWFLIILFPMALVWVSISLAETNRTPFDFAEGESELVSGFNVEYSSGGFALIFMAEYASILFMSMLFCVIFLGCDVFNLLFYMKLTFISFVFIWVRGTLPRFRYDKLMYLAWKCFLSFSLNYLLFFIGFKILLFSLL
T2 sequence (P18930 whole entry, further chain): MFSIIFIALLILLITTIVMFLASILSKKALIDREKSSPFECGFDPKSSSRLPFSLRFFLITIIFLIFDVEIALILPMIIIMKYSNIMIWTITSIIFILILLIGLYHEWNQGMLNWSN
T2 sequence (P18933 1-173, further chain): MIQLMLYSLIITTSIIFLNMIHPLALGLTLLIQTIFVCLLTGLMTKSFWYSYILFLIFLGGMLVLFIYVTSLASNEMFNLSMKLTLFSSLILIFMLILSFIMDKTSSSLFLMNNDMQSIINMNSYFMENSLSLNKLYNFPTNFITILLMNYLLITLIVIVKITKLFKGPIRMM

[3] = target: T3, subunit NDUFA10 of Drosophila complex I (Drosophila melanogaster, UniProt P91929); type: binding; settings: modelled in Dm1 map; identity taken from earlier work
T3 construct: gene ND-42; subunit within native 43-subunit complex I purified from mitochondrial membranes of whole adult flies; no tag
T3 sequence (P91929 61-407): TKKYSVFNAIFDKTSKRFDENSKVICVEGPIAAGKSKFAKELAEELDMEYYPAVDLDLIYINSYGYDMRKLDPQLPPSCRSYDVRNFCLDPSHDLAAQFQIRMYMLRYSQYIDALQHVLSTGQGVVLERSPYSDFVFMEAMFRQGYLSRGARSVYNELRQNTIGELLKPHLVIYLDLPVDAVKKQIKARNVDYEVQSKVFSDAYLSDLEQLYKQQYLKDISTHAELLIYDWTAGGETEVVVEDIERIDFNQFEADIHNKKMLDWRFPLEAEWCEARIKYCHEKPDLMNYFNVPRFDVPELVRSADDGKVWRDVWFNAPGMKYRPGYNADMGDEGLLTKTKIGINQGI

Question: Which “cryo-EM structure (3.28 A)” value [1] does the source give for `Cc1cc2nc3c(=O)[nH]c(=O)nc-3n(C[C@H](O)[C@H](O)[C@H](O)COP(=O)(O)O)c2cc1C` [FMN] here?
Answer: The NADH-binding site at the flavin mononucleotide (FMN) cofactor

Question: For `COC1=C(OC)C(=O)C(C/C=C(\C)CC/C=C(\C)CC/C=C(\C)CC/C=C(\C)CC/C=C(\C)CC/C=C(\C)CC/C=C(\C)CC/C=C(\C)CCC=C(C)C)=C(C)C1=O` [Q9], which “cryo-EM structure (3.28 A)” value [2] is on record?
Answer: density for Q9 is observed within the site, although the Q9 is only partially inserted

Question: Which “cryo-EM structure (3.28 A)” value [3] does the source give for `Nc1nc2c(ncn2[C@H]2C[C@H](O)[C@@H](COP(=O)(O)OP(=O)(O)OP(=O)(O)O)O2)c(=O)[nH]1` [dGTP] here?
Answer: dGTP was modelled in subunit NDUFA10
